How the values were obtained:
[1] = tested on: female neonate Sprague-Dawley rats; assay: Animal Experiment 1: puberty-related time points (vaginal opening, estrous cycle) in danazol-induced PP rats; format: in vivo
Method: A total of 129 female neonate Sprague-Dawley rats were housed in a humidity (67±1.5%) and temperature (24±2° C.)-controlled housing room of the Taipei Medical University's Laboratory Animal Center with a 12-hour light/dark cycle. They had free access to food and water.
(§1) Such rats were divided into Control, Danazol, MAG (monoammonium glycyrrhizinate), Danazol+Low-MAG (100 μg/kg/day), Danazol+Medium-MAG (200 μg/kg/day), and Danazol+High-MAG (400 μg/kg/day) groups. The day at birth was termed postnatal day (PND). Litters belonging to danazol-induced PP groups were given a single subcutaneous injection of 300 μg danazol (Sigma-Aldrich) dissolved in 30 μL vehicle composed of propylene glycerol and ethanol (1:1)^[7]. MAG was administered using oral gavage since PND 13. Offspring were weaned onto a normal chow diet and water at PND 21. Body weight was measured daily. The rats were examined daily for the vaginal opening, which was considered as a marker of pubertal onset.
(§2) MAG was prepared freshly at the beginning of the experiment daily by mixing MAG powder with sterilized water. The volume fed each day was calculated based on the MAG solubility (20 mg/mL), maximum volume tolerated (10 mL/kg/time), intended dose (either 100, 200, or 400 μg/kg/day), and the rat's body weight on that day. Those who were not in the MAG-fed groups were fed with the same volume of sterilized water. MAG doses were chosen based on existing guidelines for safe dosage in humans and previous work in animals. In more detail, the doses were about 5 to 20 times lower than the no-observed-adverse-effect-levels (NOAELs)^[8]. They reflect the normal physiological intake of this sweetener.
In this experiment, rats were fed with MAG daily until the end of experiment to maintain the long-term effect of drug tested. Vaginal smear was performed daily until they established three consecutive regular 4- or 5-day-cycles. The day of vaginal opening was the primary outcome. Moreover, the day of the setup of the regular cycle and the day of the establishment of 3 regular cycles were observed as secondary outcomes. The first day of diestrus or metestrus of the first cycle in the 3 consecutive regular estrous cycles was determined as the day of the setup of the regular cycle^[7]. The last day of diestrus of the last cycle in the 3 consecutive regular estrous cycles was determined as the day of establishment of 3 regular cycles^[9].
(§3) Data were presented as means±standard deviation. Statistical analysis was performed on raw data using one-way analysis of variance (ANOVA). Comparisons among groups were made using the post hoc Tukey-HSD test. Day of vaginal opening, day of setup of regular cycle and day of establishment of 3 regular cycles were analyzed using survival analysis and were compared using the log-rank test. A two-tailed p-value<0.05 was considered significant.

[2] = tested on: female neonate Sprague-Dawley rats; assay: Animal Experiment 2: serum estrogen level on sacrifice day; format: in vivo
Description: In this experiment, rats were raised until the model group (danazol) experienced vaginal opening. At that time, all of the rats were then sacrificed to (1) compare the differences between serum estrogen and luteinizing hormone (LH) levels; (2) compare the mRNA expression of GnRHa, k, Lin28a, Lin28b, let7a, let7b, GPR54, netrin-1, UNC5C, and MKRN3 in the hypothalamus using qPCR; and (3) compare the number of GnRH and kisspeptin neurons in the hypothalamus using immunohistochemistry (IHC).
(§4) Overnight fasting blood samples for glucose measurement were collected from tail veins two days before sacrifice. Blood samples for LH, estrogen, and other routine laboratory tests were collected from the abdominal aorta when sacrificing. Insulin resistance was then estimated using the triglyceride glucose (TyG) index. […] Also, the fecal samples were collected during these days to analyze gut microbiome, short chain fatty acids (SCFA), and reserve material for fecal microbiota transplantation (FMT) in Experiment 3.
Blood glucose in rodents was measured using the BioSystem glucose GOD/Peroxidase kit. LH levels were measured using the Enzo LH ELISA kit following the manufacturer's instructions. Samples for estrogen and other routine test were sent to a clinical laboratory.

[3] = tested on: mice (recipient) raised in a specific-pathogen free environment; assay: Animal Experiment 3: fecal microbiota transplantation (FMT), day of vaginal opening; format: in vivo; settings: Danazol group, n = 6
Method: In this experiment, the fecal material collected in Experiment 2 (from donor) was transplanted to mice (recipient) raised in a specific-pathogen free environment. Pathogen free mice model was established by feeding 25 mL of cocktail antibiotics, which contain 50 mg of ampicillin, 50 mg of neomycin, 50 mg of metronidazole, and 25 mg of vancomycin.
as §3

precocious puberty = assay: Taiwan Puberty Longitudinal Study cohort: sweetener intake and risk of precocious puberty (logistic regression); format: in vivo, human; settings: for OR of precocious puberty: adjusted model
Method: The Taiwan Puberty Longitudinal Study (TPLS) was a multicenter project involving several hospitals in Taiwan. A total of more than 2,000 female adolescents aged from 6 to 16 years and male adolescents aged from 9 to 17 years had been recruited from pediatric endocrine clinics since 2018. Anthropometric measurements, pubertal stages exams, and interviews about physical activity and sleep quality were conducted quarterly. A comprehensive evaluation, including 24-hour food recall, fasting blood test, and parental interviews about their children's physical activity and sleep quality, was performed annually. Participants were followed up until reaching the late pubertal stages. Thorough market search, a comprehensive and semiquantitative food frequency questionnaire (FFQ), was created for glycyrrhizin intake evaluation in advance. A total of 39 glycyrrhizin-containing food and beverage products were listed in this non-nutritive sweetener food frequency questionnaire ([…])^[1]. The questionnaire was used to screen the level of glycyrrhizin consumption. The interval scale for frequency was measured as never or a number of times per day or per week. Glycyrrhizin consumption was described as the proportion relative to acceptable daily intake (ADI) set by the Joint FAO/WHO Expert Committee on Food Additives[2]. The glycyrrhizin exposure dose in % ADI was finally categorized as tertiles, ranging from T1 (0 to 0.0006), T2 (0.0006 to 0.002) to T3 (>0.002). […] Most of the added sugar came from sugar-sweetened beverages (SSB). The added-sugar exposure dose in % ADI was also categorized as tertiles, ranging from T1 (0 to 0.0013), T2 (0.0013 to 0.0044) to T3 (>0.0044). Precocious puberty (PP) was diagnosed in the presence of the following criteria: secondary sexual characteristics happen before the age of 8 years old, bone age advance greater than 2 years above chronological age, and peak luteinizing hormone (LH)≥5 after the gonadotropin-releasing hormone (GnRH) stimulation test^[3]. Body mass index (BMI) was calculated as weight in kilograms divided by height in meters squared and was then transformed into z-scores (zBMI) based on age- and sex-related reference charts for Taiwanese children^[4]. Participants were asked for their habitual activities, and the amount of time they spend for specific physical activities. The intensity of each activity was described as metabolic equivalent of task (MET)^[5]. Daily metabolic equivalent value (METD) was calculated by summarizing mean of the standard MET of each activity multiplied by the average daily duration. The sleep quality scores, ranging from 0 to 21, were assessed by the Pittsburgh Sleep Quality Index (PSQI) through a self-reported questionnaire^[6]. The total energy intake daily in kcal was estimated by the summary of energy intake from three major macronutrients, including carbohydrates, fat, and proteins. Parental education was assessed by interviews and classified as “senior high school and below,” “college,” or “graduate school and higher.” Odds ratios (ORs) for precocious puberty in participants consumed different doses of glycyrrhizin and added sugar were calculated from generalized linear models with logistic regression using glm( ) function. Models were adjusted for gender, age, zBMI, exercise time, sleep quality, total energy intake, and parental education. Atwo-tailed p-value of <0.05 was considered statistically significant. All analyses were performed using R software (version 4.0.2; RStudio; R Foundation for Statistical Computing, Inc., Boston, MA, USA).

[4] = tested on: female neonate Sprague-Dawley rats; assay: Body weight, reproductive organ coefficient weights, routine laboratory safety tests and TyG index in rats; format: in vivo
Method: as §1, §4
On the days of the vaginal opening in the model group, all animals were exsanguinated with normal saline following anesthesia. After perfusion, the hypothalamus was retrieved. Half of them were fixed in the 10% neutral-buffered formalin for IHC experiments, while the remaining half was embedded in RNAprotect reagent for qPCR experiments later. […]
Blood glucose in rodents was measured using the BioSystem glucose GOD/Peroxidase kit. LH levels were measured using the Enzo LH ELISA kit following the manufacturer's instructions. […]
Data were presented as means±standard deviation. […] Day of vaginal opening, day of setup of regular cycle and day of establishment of 3 regular cycles were analyzed using survival analysis and were compared using the log-rank test. […]

[5] = MAG solubility in sterilized water; format: physicochemical; settings: MAG powder mixed with sterilized water
Method: as §2

[6] = Danazol group (single s.c. 300 μg danazol), n = 6
[7] = Danazol + High-MAG (400 μg/kg/day, oral gavage), n = 15
[8] = Danazol + Low-MAG (100 μg/kg/day, oral gavage), n = 8
[9] = Danazol + Med-MAG (200 μg/kg/day, oral gavage), n = 8
[10] = MAG group (no danazol), oral gavage since PND 13, n = 5

**Q.** Which “Day of establishment of 3 regular cycles” value [1, 6] does the source give for `C#C[C@]1(O)CC[C@H]2[C@@H]3CCC4=Cc5oncc5C[C@]4(C)[C@H]3CC[C@@]21C` [Danazol, danazol, reference compound] here?
**A.** The value was 38.17 ± 1.17.

**Q.** And the “Day of setup of regular cycle” value [1, 6]?
**A.** The value was 27.67 ± 1.51.

**Q.** What about the “Day of vaginal opening” value [1, 6] of the same molecule?
**A.** Its value is 23.00 ± 0.00.

**Q.** And the Serum estrogen level ([2]; Danazol group)?
**A.** Its Serum estrogen level is “trend towards higher values”.

**Q.** And the “Day of vaginal opening (PND)” value [3]?
**A.** The value was 24.33 PND.

**Q.** Which “OR of precocious puberty” value (precocious puberty; Female, exposure tertile T1 vs no intake) does the source give for `CC1(C)[C@@H](O[C@H]2O[C@H](C(=O)O)[C@@H](O)[C@H](O)[C@H]2O[C@@H]2O[C@H](C(=O)O)[C@@H](O)[C@H](O)[C@H]2O)CC[C@]2(C)[C@H]3C(=O)C=C4[C@@H]5C[C@@](C)(C(=O)O)CC[C@]5(C)CC[C@@]4(C)[C@]3(C)CC[C@@H]12` [Glycyrrhizin, glycyrrhizin] here?
**A.** Its value is 0.479.

**Q.** What about the “OR of precocious puberty” value (precocious puberty; Female, exposure tertile T2 vs no intake) of the same molecule?
**A.** The value was 0.826.

**Q.** And the “OR of precocious puberty” value (precocious puberty; Female, exposure tertile T3 vs no intake)?
**A.** Its value is 0.969.

**Q.** And the “OR of precocious puberty” value (precocious puberty; Male, exposure tertile T1 vs no intake)?
**A.** The value was 1.384.

**Q.** What about the “OR of precocious puberty” value (precocious puberty; Male, exposure tertile T2 vs no intake) of the same molecule?
**A.** The value was 0.422.

**Q.** What about the “OR of precocious puberty” value (precocious puberty; Male, exposure tertile T3 vs no intake) of the same molecule?
**A.** Its value is 0.656.

**Q.** And the “OR of precocious puberty” value (precocious puberty; Total, exposure tertile T1 (% ADI: glycyrrhizin 0 to 0.0006, added sugar 0 to 0.0013) vs no intake)?
**A.** Its value is 0.607.

**Q.** What about the “OR of precocious puberty” value (precocious puberty; Total, exposure tertile T2 (% ADI: glycyrrhizin 0.0006 to 0.002, added sugar 0.0013 to 0.0044) vs no intake) of the same molecule?
**A.** The value was 0.687.

**Q.** What about the “OR of precocious puberty” value (precocious puberty; Total, exposure tertile T3 (% ADI: glycyrrhizin >0.002, added sugar >0.0044) vs no intake) of the same molecule?
**A.** Its value is 0.857.

**Q.** What about the “Risk of PP after full adjustment” value (precocious puberty; human cohort, consumption vs no intake) of the same molecule?
**A.** The value was “reduce the risk of PP”.

**Q.** Which “Day of establishment of 3 regular cycles” value [1, 7] does the source give for `CC1(C)[C@@H](O[C@H]2O[C@H](C(=O)O)[C@@H](O)[C@H](O)[C@H]2O[C@@H]2O[C@H](C(=O)O)[C@@H](O)[C@H](O)[C@H]2O)CC[C@]2(C)[C@H]3C(=O)C=C4[C@@H]5C[C@@](C)(C(=O)O)CC[C@]5(C)CC[C@@]4(C)[C@]3(C)CC[C@@H]12.N` [MAG, monoammonium glycyrrhizinate] here?
**A.** The value was 41.47 ± 2.85.

**Q.** What about the “Day of setup of regular cycle” value [1, 7] of the same molecule?
**A.** The value was 28.93 ± 3.62.

**Q.** And the “Day of vaginal opening” value [1, 7]?
**A.** The value was 24.00 ± 2.45.

**Q.** What about the “Day of establishment of 3 regular cycles” value [1, 8] of the same molecule?
**A.** Its value is 44.13 ± 3.68.

**Q.** And the “Day of setup of regular cycle” value [1, 8]?
**A.** Its value is 31.50 ± 3.63.

**Q.** What about the “Day of vaginal opening” value [1, 8] of the same molecule?
**A.** Its value is 25.13 ± 3.60.

**Q.** And the “Day of establishment of 3 regular cycles” value [1, 9]?
**A.** The value was 45.88 ± 4.19.

**Q.** What about the “Day of setup of regular cycle” value [1, 9] of the same molecule?
**A.** Its value is 33.38 ± 4.07.

**Q.** And the “Day of vaginal opening” value [1, 9]?
**A.** The value was 27.50 ± 5.01.

**Q.** And the “Day of establishment of 3 regular cycles” value [1, 10]?
**A.** The value was 49.00 ± 2.55.

**Q.** And the “Day of setup of regular cycle” value [1, 10]?
**A.** Its value is 37.40 ± 3.44.

**Q.** And the “Day of vaginal opening” value [1, 10]?
**A.** Its value is 32.60 ± 2.07.

**Q.** And the “Protection against PP over the whole estrous cycle” value ([1]; danazol-induced PP rats, most obvious effects with Low- and Medium-MAG groups)?
**A.** The value was “protected rats against PP following a dose-dependent manner”.

**Q.** What about the “Liver enzyme, renal function, albumin, electrolyte panel and lipid profiles” value ([4]; all p>0.05) of the same molecule?
**A.** The value was “no safety concerns”.

**Q.** And the “Body weight during puberty” value ([4]; among groups, p=0.448)?
**A.** The value was “no difference”.

**Q.** What about the “Insulin resistance (TyG index) at the end of the experiment” value ([4]; between groups, High-MAG vs Medium-MAG p=0.048) of the same molecule?
**A.** Its value is “did not differ between groups, with the exception of a higher value in High-MAG than that of Medium-MAG”.

**Q.** And the Serum estrogen level ([2]; High-MAG group (danazol + 400 μg/kg/day))?
**A.** Its Serum estrogen level is “trend towards higher values”.

**Q.** And the MAG solubility [5]?
**A.** Its MAG solubility is 20 mg/mL.

— patent publication US20240350521A1, “COMPOSITIONS AND METHODS FOR PREVENTING OR TREATING PRECOCIOUS PUBERTY” (TAIPEI MEDICAL UNIVERSITY, priority 2023, published 2024)
